Read-outs that look alike come from different tables or passages of the source.
Experiments:
[1] = Fluorescence binding study with fructose
Protocol: (§1) For a typical sugar-BTBA fluorescent measurement, a 1.0×10^−5 M stock solution of BTBA in 0.10 M phosphate buffer at pH 7.4 was made as solution A. […] Solution B was titrated into solution A in order to make mixtures with a constant concentration of BTBA and a range of concentrations of the sugar. Each mixture was allowed to stand for at least 10 min, then 3.0 mL of the mixture was transferred into a cuvette for fluorescence measurement.
(§2) The association constants (Ka) were determined according to the method III in Valeur's publication (J. Phys. Chem. 1988, 92, 6233).

[2] = Fluorescence binding study with galactose
Protocol: as §1, §2

[3] = Fluorescence binding study with glucose
Protocol: as §1, §2

[4] = Fluorescence binding study with sorbitol
Protocol: as §1, §2

[5] = Fluorescence binding study with tagatose
Protocol: as §1, §2

[6] = Fluorescence intensity pH profile (apparent pKa); type: physicochemical
Text: Since the fluorescence intensity increase upon binding with a sugar seems to be a general phenomenon, the fluorescence change mechanism of compound 5 at pH 7.4 was investigated. For this purpose, the fluorescence pH profiles of both compound 5 alone and compound 5 in the presence of fructose (0.5 M) were studied. The fluorescence intensity of 5 at 334 nm in the absence of sugars decreased upon changing the pH from 3 to 12 (FIG. 3). An apparent pKa of 7.0 was observed, which is assigned to the boronic acid moiety. […] It is well-known that the binding of a diol to boronic acid often lowers the pKa of the boron species) (Springsteen, G.; Wang, B. Tetrahedron 2002, 58, 5291-5300). Therefore, the pKa, which drops from 7.0 to 4.0, can also be reasonably assigned to boron. […] It seems that the fluorescence intensity change of compound 5 is also due to diol's perturbation as that of 8-quinolineboronic acid.
To examine the relationship between the fluorescence intensity changes and the boron ionization states, the pH profile of the fluorescence intensity in the absence and presence of fructose and glucose at a fixed concentration (50 mM) was also studied (FIG. 6). […] It is worth mentioning that the pKa of the protonated dimethyl amino group of 1 is […] the emission wavelength of 1 with the protonated dimethyl amino group at low pH is about 238 nm. Therefore, the fluorescence intensity of 1 at 445 nm was not affected by the protonated dimethyl amino group. The fluorescence intensity changes correspond to the boronic acid pKa (9.4) and therefore hybridization changes, which was responsible for the fluorescence intensity changes observed.
Since the fluorescence intensity increase upon binding with a sugar seems to be a general phenomenon, next the conditions under which optimal fluorescence intensity changes are observed upon addition of a sugar was investigated. For this purpose, the fluorescence pH profiles of both compound 6 alone and in the presence of fructose (0.5 M) were studied. The fluorescence intensity of 6 in the absence of sugars increased by 17-fold upon changing the pH from 3 to 12 (FIG. 10). […] Furthermore, one would expect the pKa values of the other two ionizable groups, the carboxylic acid and the quinolinium groups, to be less than 7. Therefore, assigning the pKa at 7.9 to the boronic acid moiety is the most reasonable option. […] It is well-known that the binding of a diol to boronic acid often lowers the pKa of the boron species. […] Upon addition of fructose, the pKa of the boron drops to about 5.2, which ensures that most of the boron species are in the anionic tetrahedral state at physiological pH.
Since the fluorescence intensity increase upon binding with a sugar seems to be a general phenomenon, the use of 5-QBA functions as a fluorescent probe for diols was investigated. The fluorescence pH profiles of both 5-QBA alone and 5-QBA in the presence of D-fructose (0.5 M) were investigated. […] In order to assign each pKa, the ^11B NMR spectra of 5-QBA and its ester in a mixed deuterated methanol-water (1:1) solvent at different pH were obtained. Methanol was used so that the concentration of 5-QBA can be increased to 57 mM so as to allow for a meaningful NMR determination within a reasonable period of time.
To understand the structural features associated with the fluorescence intensity changes, we studied the pH profiles of the fluorescence intensity in the absence (FIG. 18) and presence of fructose and glucose at a fixed concentration (50 mM). […] The fluorescence intensity at 513 nm increased very quickly when pH increased from 1.78 to 7.04 (thin lines in FIG. 18), and then decreased in the pH range of 7.04-10.54 (thick lines in FIG. 18).

[7] = Fluorescence quantum yield; type: physicochemical
Protocol: The effect of various carbohydrates on the fluorescent properties of compound 1 was determined in phosphate buffer at pH 7.4. The emission spectral change of 1 with fructose at different concentrations in 0.1 M aqueous phosphate buffer (pH 7.4) is shown in FIG. 4. A 41-fold emission intensity increase is observed in presence of 50 mM fructose. To the best of our knowledge, such a large emission intensity increase has never been reported for boronic acid-based saccharide sensors involving the ICT mechanism. The quantum yields of 1 in the absence (φF=0.010) and in the presence of 50 mM fructose (φF=0.42) in 0.1 M phosphate buffer (pH 7.4) were obtained using 8-quinoline boronic acid (φF=0.58 in 12 M H2SO4) as a reference compound.
For example, addition of fructose (50 mM) to the solution of 7 induced a 36-fold fluorescence intensity increase at 433 nm and a 0.55-fold fluorescence intensity decrease at 513 nm (FIG. 14). […] To the best of our knowledge, such large emission intensity changes at two wavelengths have never been reported for boronic acid-based saccharide sensors. The quantum yields (φF) of 7 were determined as 0.07 at 513 nm in 0.1 M phosphate buffer (pH 7.4) in the absence of a sugar and 0.23 at 433 nm in the presence of 50 mM of fructose, using 8-quinoline boronic acid (φF=0.58 in 12 M H2SO4) as a reference compound.

[8] = Stability noted at isolation; type: physicochemical; conditions: after TFA deprotection, no further purification
Protocol: (7). To a solution of 6 (0.2501 g, 0.79 mmol) in DCM (20 mL) was added TFA (5 mL). The solution was stirred for 1 h, and then concentrated in vacuum to give a yellow oil.

[9] = 0.1 M phosphate buffer pH 7.4, 1:1 complex assumed
[10] = fructose 0.05 M, pH 7.4, λex 300 nm
[11] = galactose 0.50 M, pH 7.4, λex 300 nm
[12] = glucose 1.0 M, pH 7.4, λex 300 nm
[13] = tagatose 0.05 M, pH 7.4, λex 300 nm

CN(C)c1cccc2c(B(O)O)cccc12 [Compound 7, 5-(Dimethylamino)-naphthalene-1-boronic acid]
change of the ratio I433/I513 ([1]; 50 mM fructose versus no sugar): 84 fold | Association constant (Ka) with fructose [1, 9]: 311 ± 4 M⁻¹ | emission intensity ratio at 433 and 513 nm (I433/I513) ([1]; before addition of a sugar, pH 7.4): 0.11 | fluorescence intensity change ΔI/I0 at 433 nm [1, 10]: 36 (0.05) | fluorescence intensity change ΔI/I0 at 513 nm [1, 10]: −0.61 (0.05) | fluorescence intensity decrease at 513 nm ([1]; fructose 50 mM, phosphate buffer pH 7.4): 0.55 fold | emission intensity ratio at 433 and 513 nm (I433/I513) ([1]; upon addition of 0.1 mM fructose): 0.23 | Association constant (Ka) with galactose [2, 9]: 23.0 ± 0.2 M⁻¹ | fluorescence intensity change ΔI/I0 at 433 nm [2, 11]: 36 (0.50) | fluorescence intensity change ΔI/I0 at 513 nm [2, 11]: −0.56 (0.50) | fluorescence intensity increase at 433 nm ([2]; galactose, physiological pH): about 36 fold | Association constant (Ka) with glucose [3, 9]: 3.6 ± 0.1 M⁻¹ | fluorescence intensity change ΔI/I0 at 433 nm [3, 12]: 23 (1.0) | fluorescence intensity change ΔI/I0 at 513 nm [3, 12]: −0.54 (1.0) | maximum fluorescence intensity increase at 433 nm ([3]; glucose 1 M, physiological pH): 23 fold | Association constant (Ka) with sorbitol [4, 9]: 337 ± 5 M⁻¹ | fluorescence intensity change ΔI/I0 at 513 nm ([4]; sorbitol 0.05 M, pH 7.4, λex 300 nm): −0.48 (0.05) | fluorescence intensity change ΔI/I0 at 433 nm ([4]; sorbitol 0.20 M, pH 7.4, λex 300 nm): 42 (0.20) | fluorescence intensity increase at 433 nm ([4]; sorbitol 200 mM, physiological pH): 42 fold | Association constant (Ka) with tagatose [5, 9]: 229 ± 3 M⁻¹ | fluorescence intensity change ΔI/I0 at 433 nm [5, 13]: 37 (0.05) | fluorescence intensity change ΔI/I0 at 513 nm [5, 13]: −0.55 (0.05) | fluorescence intensity increase at 433 nm ([5]; tagatose, physiological pH): about 36 fold | pKa ([6]; 0.1 M aqueous phosphate buffer with 50 mM glucose, presence of glucose, intensity at 335 nm, read-out: first apparent pKa (aniline group)): 5.1 | pKa ([6]; 0.1 M aqueous phosphate buffer, compound alone, intensity at 335 nm, read-out: first apparent pKa (aniline group)): 5.1 | pKa ([6]; 0.1 M phosphate buffer, absence of sugar, 0.1 M phosphate buffer, read-out: apparent pKa assigned to the boronic acid moiety): ~9 | quantum yield φF at 513 nm ([7]; absence of a sugar, 0.1 M phosphate buffer pH 7.4): 0.07 | quantum yield φF at 433 nm ([7]; presence of 50 mM fructose): 0.23 | stability [8]: not stable in neutral | melting point: 95 to 96 °C
